Numbered stars: 1 amine (or outer) side, 2 acyl side, 3 side chain; on linkers, the order of the positions; unused ones are H or OH. Bridge positions count the residues as written; N and C are the ends. Square brackets hold non-standard residues; d marks the D form. Ends that are not written are not given here. Peptide text beside a SMILES is read from it. * marks the point of attachment. Myristoyl = CCCCCCCCCCCCCC(=O)*; CO = O=C([*:1])[*:2]; Nlys = NCCCCNCC(=O)O
Tests used:
MyD88 = MyD88 (Homo sapiens, UniProt Q99836); test: Comparison of linear 7-mer peptide with and without N-terminal myristoyl group (assay not specified); conditions: versus linear MyD88 inhibitor 7-mer peptide
Chain of MyD88 (Q99836 whole entry, species assumed): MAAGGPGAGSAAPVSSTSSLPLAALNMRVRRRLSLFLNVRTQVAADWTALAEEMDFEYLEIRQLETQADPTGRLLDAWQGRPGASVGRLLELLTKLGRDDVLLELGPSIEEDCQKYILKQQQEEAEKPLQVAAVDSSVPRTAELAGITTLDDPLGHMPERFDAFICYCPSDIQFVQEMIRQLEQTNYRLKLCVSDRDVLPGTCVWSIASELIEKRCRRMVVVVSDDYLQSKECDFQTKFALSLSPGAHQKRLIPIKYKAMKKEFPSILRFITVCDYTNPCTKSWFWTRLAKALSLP
Excerpt: The importance of additional moieties to enhance cell penetration is further evaluated. […] Therefore, backbone cyclic peptides with addition of a myristoyl group or other moieties designed to enhance cell penetration are also synthesized and tested for binding, inhibition, stability and permeability.

[1] = system: OCI-LY3 (MyD88 L265P) cells; test: Proliferation of lymphoma cells (Promega CellTiter viability assay); assay type: cell-based, human; conditions: 48 h; compared with OCI-LY19 (MyD88 WT)
Description: FIGS. 18A and 18B. 4×4MyDI and Myr-4×4MyDI block proliferation of Ly3 lymphoma cells that carry the L265P oncogenic mutation in MyD88. Cell lines OCI-LY3 (MyD88^L265P) and OCI-LY19 (MyD88^WT) were grown in RPMI supplemented with 10% FCS. Cells were counted and plated at identical concentrations in triplicate wells of 96 well plates and decreasing concentrations of 4×4MyDI […], or Myr-4×4MyDI (19B), was added to the wells. After 48 h cell viability was tested using the Promega CellTiter viability assay according to the manufacturer's instructions. Percent inhibition was calculated as [(1-OD of well with inhibitor/OD of well without inhibitor)*1001. Negative values in A represent enhanced growth in the presence of the inhibitor.
Genomic DNA was prepared from the human lymphoma cell lines OCI-LY3 (MyD88^L265P) and OCI-LY19 (MyD88^WT) to confirm the presence of the activating L265P mutation in the OCI-Ly3 cells (and the WT sequence in the OCI-Ly19 cells). The MyD88 region was amplified using the forward and reverse primers GGGATATGCTGAACTAAGTTGCCAC (SEQ ID NO: 7) and GACGTGTCTGTGAAGTTGGCATCTC (SEQ ID NO: 8), respectively, as described in Xu, L. et al Blood (2013) 121(11): 2051-2058. The PCR product was sequenced to confirm the mutation.
The cell lines were incubated alone or with increasing concentrations of the 4×4MyDI. […]

MyD88 dimerization = target: T1, MyD88 dimerization (Homo sapiens, UniProt Q99836); test: Co-immunoprecipitation of Flag-MyD88 with HA-MyD88 in HEK293 cells; assay type: cell-based; conditions: HEK293, IL-1 stimulation; 4×4MyDI at 20, 2, 0.2 μM; Myr-4×4MyDI at 0.2 or 2000 nM
T1 construct: constructs encoding HA-tagged full length MyD88 and Flag-tagged full length MyD88; expressed in transfected cells; host or cells: HEK293
T1 sequence (Q99836 whole entry): as the sequence (Q99836 whole entry, species assumed) above
Description: FIG. 10. 4×4MyDI blocks MyD88 dimerization. HEK293 cells were transfected with two plasmids, one encoding HA-MyD88 and the other encoding FLAG-MyD88 and after 48 hours the cells were either untreated (cont) or treated with 20 μM of the linear MyDI peptide, the scrambled version of the linear MyDI peptide (SEQ ID NO: 5,), or the 4×4MyDI at 20, 2, or 0.2 μM. After 3 h of treatment, cells were stimulated with recombinant human IL-1 (20 ng/ml) for 30 min and then lysed. Whole cell lysates (WCL) were immunoprecipitated with anti-HA beads (Thermo-Scientific) for 30 min and proteins were eluted with glycine Ph 2.0, neutralized, and loaded on an acrylamide gel for analysis. Proteins were transferred to nitrocellulose and the amount of Flag-MyD88 that co-precipitated with HA-MyD88 was detected by immunoblotting (IB) with anti-Flag antibody.
FIGS. 14A and 14B. […] Proteins were transferred to nitrocellulose and the amount of FLAG-MyD88 that co-precipitated with HA-MyD88 was detected by immunoblotting (IB) with anti-FLAG antibody. […] Percent inhibition of co-immunoprecipitation was calculated by comparing densitometry of bands in the treated lanes to control. […]
TLR and IL-1 receptor signaling proceeds through a multimeric protein signaling complex (the “Myddosome”) that is initiated by MyD88 homodimerization. […] Immunoprecipitated protein was eluted and analyzed by immunoblot using an antibody to Flag. […]

NFkB activation = test: NFkB-luciferase reporter in RAW 264.7 macrophages stimulated with LPS; assay type: cell-based, mouse; conditions: RAW 264.7 NFkB-luc, 4 hours
Description: FIG. 13. 4×4MyDI and Myr4×4MyDI block NFkB induction in response to LPS stimulation of RAW 264.7 NFkB-luc cells. RAW 264.7 murine macrophages were transfected with an NFkB-luciferase reporter gene and stimulated with LPS in the absence or presence of increasing concentrations of the inhibitors. After 4 hours cells were lysed and luminescence was recorded using a Tecan plate reader. BG denotes background.
In this assay the mouse macrophage RAW264.7 cell line is transfected with an NFkB-luciferase reporter construct and then cells are stimulated by exposure to bacterial LPS and light emission is measured after addition of luciferase substrate.

Compound: CCCCCCCCCCCCCC(=O)N[C@@H](CCCNC(=N)N)C(=O)N[C@@H](CC(=O)O)C(=O)N[C@H](C(=O)N[C@@H](CC(C)C)C(=O)N1CCC[C@H]1C(=O)NCC(=O)N[C@H](C(=O)O)[C@@H](C)O)C(C)C (Myristoyl-RDVLPGT-OH; N-terminus and C-terminus assumed)
- peptide stability on addition of myristoyl group (MyD88): without affecting peptide stability

Compound: Myr-4×4MyDI: 4×4MyDI backbone cyclic peptide with a myristoyl group (formula V) (Myristoyl-[Nlys]RDVL[Nlys]GT; bridge 1-6 via CO)
- proliferation of OCI-Ly3 cells [1]: specifically blocked proliferation
- MyD88 dimerization (Flag-MyD88 co-precipitated with HA-MyD88) (MyD88 dimerization): at least as active as 4×4MyDI
- block of NFkB activation (NFkB activation): greater activity than the 4×4MyDI
